Results as given in the CheMixHub ionic liquid set.

Assay: xn = mol fraction of the nth substance listed

CS(=O)(=O)[O-].C[N+](C)(CCO)CCO + CCO
viscosity [mPa·s], 101 kPa
Details	x1 = 0.099	x1 = 0.2	x1 = 0.2984	x1 = 0.4	x1 = 0.5005	x1 = 0.6011	x1 = 0.7008	x1 = 0.7993	x1 = 0.8954	x1 = 1
298.15 K	3.21	8.15	18.5	39.7	80.7	176	319	556	950	1495
303.15 K	2.89	7.02	15.54	32.2	63.3	133.2	236	399	664	1021
308.15 K	2.61	6.13	13.16	26.5	50.5	92.7	178	293	476	716
313.15 K	2.32	5.38	11.4	22.1	41	73.2	136.8	221	350	513
318.15 K	2.13	4.76	9.92	18.6	33.7	58.6	106.9	169	262	378
323.15 K	1.9	4.24	8.58	15.85	28	47.6	76.5	132.1	201	282

OCCO + CCOS(=O)(=O)[O-].CC[n+]1ccn(C)c1
100 kPa, x1 = 1
Details	viscosity [mPa·s]
298.15 K	16.8
303.15 K	13.8

[N-]=C=S.[NH4+] + CCOS(=O)(=O)[O-].CC[n+]1ccn(C)c1
101 kPa
Details	electrical conductivity [S/m]	viscosity [mPa·s]
298.15 K, x1 = 0.0235	0.373	103.1
298.15 K, x1 = 0.3025	0.285	–
303.15 K, x1 = 0.565	0.375	172.5
308.15 K, x1 = 0.3025	0.439	129.6
308.15 K, x1 = 0.4042	0.436	140.9
313.15 K, x1 = 0.5997	0.59	–
318.15 K, x1 = 0.5205	0.656	86.9
318.15 K, x1 = 0.565	0.728	85.3
323.15 K, x1 = 0.565	0.868	69.75
333.15 K, x1 = 0.0235	–	26.54
333.15 K, x1 = 0.3025	–	50.29
333.15 K, x1 = 0.4042	–	53.18
333.15 K, x1 = 0.5997	–	47.67

O=C([O-])CC(O)(CC(=O)[O-])C(=O)[O-].[K+].[K+].[K+] + CCOS(=O)(=O)[O-].CC[n+]1ccn(C)c1 + O
viscosity [mPa·s], 101.3 kPa
Details	293.15 K	298.15 K	303.15 K	308.15 K	313.15 K
x1 = 0.0001822, x2 = 0.001795	1.082	0.969	0.854	0.76	0.688
x1 = 0.0001842, x2 = 0.002697	1.117	0.997	0.886	0.798	0.719
x1 = 0.0001964, x2 = 0	1.012	0.9	0.806	0.73	0.654
x1 = 0.0002632, x2 = 0.003588	1.149	1.029	0.912	0.824	0.74
x1 = 0.0005421, x2 = 0	1.019	0.907	0.813	0.737	0.661
x1 = 0.0005539, x2 = 0.001794	1.091	0.978	0.863	0.769	0.697
x1 = 0.0005561, x2 = 0.002696	1.127	1.007	0.896	0.808	0.729
x1 = 0.0005675, x2 = 0.003587	1.157	1.037	0.921	0.832	0.749
x1 = 0.0008894, x2 = 0	1.026	0.914	0.82	0.744	0.668
x1 = 0.0009179, x2 = 0.001794	1.099	0.986	0.871	0.776	0.704
x1 = 0.0009314, x2 = 0.002695	1.135	1.015	0.904	0.816	0.737
x1 = 0.0009355, x2 = 0.003586	1.166	1.046	0.929	0.841	0.757
x1 = 0.00126, x2 = 0	1.032	0.92	0.826	0.75	0.674
x1 = 0.001287, x2 = 0.001793	1.106	0.993	0.878	0.783	0.712
x1 = 0.001299, x2 = 0.002694	1.143	1.023	0.912	0.824	0.745
x1 = 0.001316, x2 = 0.003585	1.174	1.054	0.937	0.849	0.765
x1 = 0.001616, x2 = 0	1.038	0.926	0.832	0.756	0.68
x1 = 0.001647, x2 = 0.001792	1.113	1	0.884	0.79	0.719
x1 = 0.001665, x2 = 0.002693	1.15	1.03	0.92	0.831	0.753
x1 = 0.001686, x2 = 0.003583	1.181	1.061	0.944	0.856	0.773
x1 = 0.001985, x2 = 0	1.044	0.932	0.838	0.762	0.686
x1 = 0.002026, x2 = 0.002692	1.158	1.038	0.926	0.839	0.759
x1 = 0.002032, x2 = 0.001792	1.12	1.007	0.892	0.798	0.725
x1 = 0.002072, x2 = 0.003582	1.19	1.07	0.954	0.865	0.78

CCCCn1cc[n+](C)c1C.O=S(=O)([N-]S(=O)(=O)C(F)(F)F)C(F)(F)F + CC[N+](C)(CC)CCOC.O=S(=O)([N-]S(=O)(=O)C(F)(F)F)C(F)(F)F
100 kPa, x2 = 0
Details	electrical conductivity [S/m]
298.15 K	0.237
308.15 K	0.379
323.15 K	0.665
328.15 K	0.777

OCCO + CC[n+]1ccn(C)c1.F[B-](F)(F)F
viscosity [mPa·s]
Details	293.15 K	298.15 K	323.15 K	333.15 K	343.15 K
100 kPa, x1 = 1	21.4	17.4	7.12	–	4.1
101 kPa, x2 = 0	–	–	–	5.19	–
